The values that follow come from PubChem BioAssay (NCI).

Some test systems named below: RPMI-8226 leukemia; SR leukemia; EKVX NSCLC; BT-549 breast; SF-295 CNS; NCI-H522 lung; CAKI-1 renal; HOP-92 NSCLC; OVCAR-3 ovarian; SK-OV-3 ovarian.
What all share (test): growth of human tumour cells (NCI), 48 h

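Following 48 hours of exposure in 96-well plates, responses at five concentrations were used to interpolate endpoints linearly. GI50 is the concentration that inhibits growth by half. TGI is the concentration that stops growth completely.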

With `COc1cc2c(cc1Cc1cccc(Cl)c1F)c(=O)c(C(=O)O)cn2[C@@H](CO)C(C)C`, the GI50 was 3.36 µM with RPMI-8226 leukemia; 3.54 µM with SR leukemia; 3.85 µM in the experiment on EKVX NSCLC; 2.09 µM in the experiment on BT-549 breast; 2.14 µM in the experiment on SF-295 CNS; 3.51 µM with NCI-H522 lung. For the same compound, the GI50 with CAKI-1 renal is 3.28 µM; with HOP-92 NSCLC, 1.45 µM; in the experiment on OVCAR-3 ovarian, 3.32 µM; in the experiment with SK-OV-3 ovarian it was 4.64 µM. Also, the TGI in the experiment with RPMI-8226 leukemia was 12.5 µM; in the experiment on SR leukemia it was 13.8 µM; with EKVX NSCLC, 17.3 µM; with BT-549 breast it was 8.66 µM; with SF-295 CNS, 5.53 µM; with NCI-H522 lung it was 11.7 µM. The TGI was found to be 12.7 µM in the experiment with CAKI-1 renal, 6.34 µM with HOP-92 NSCLC, 10.9 µM in the experiment with OVCAR-3 ovarian and 26.3 µM in the experiment on SK-OV-3 ovarian.

As for `CC(=O)Nc1c(I)c(NC(C)=O)c(I)c(C(=O)O)c1I`, the GI50 with RPMI-8226 leukemia, with SR leukemia, in the experiment on EKVX NSCLC, with BT-549 breast, with NCI-H522 lung and with CAKI-1 renal was above 100 µM each time. Moreover, the GI50 in the experiment with HOP-92 NSCLC, in the experiment with OVCAR-3 ovarian and in the experiment with SK-OV-3 ovarian was above 100 µM each time. The TGI in the experiment with RPMI-8226 leukemia, in the experiment with SR leukemia, in the experiment with EKVX NSCLC, in the experiment with BT-549 breast, in the experiment with NCI-H522 lung and with CAKI-1 renal was above 100 µM throughout. Moreover, the TGI in the experiment on HOP-92 NSCLC, in the experiment with OVCAR-3 ovarian and with SK-OV-3 ovarian was above 100 µM each time.

With `COc1cccc(/C=N/NC(=O)c2ccccc2N2CCCC2)c1O`, the GI50 in the experiment with RPMI-8226 leukemia was 3.74 µM; with SR leukemia, 4.2 µM; in the experiment with EKVX NSCLC, 3.32 µM; in the experiment on BT-549 breast it was 12.6 µM; in the experiment on SF-295 CNS, 4.88 µM; in the experiment on NCI-H522 lung it was 2.54 µM. The GI50 in the experiment on CAKI-1 renal was 3.97 µM; in the experiment with HOP-92 NSCLC, 4.67 µM; with OVCAR-3 ovarian, 3.3 µM; with SK-OV-3 ovarian, 4.9 µM. In addition, the TGI with RPMI-8226 leukemia, in the experiment with SR leukemia, in the experiment with EKVX NSCLC, with BT-549 breast, with SF-295 CNS and with NCI-H522 lung was above 100 µM throughout. Further, the TGI with CAKI-1 renal is above 100 µM; in the experiment with HOP-92 NSCLC, above 100 µM; with OVCAR-3 ovarian it was above 100 µM; in the experiment with SK-OV-3 ovarian, 90.6 µM.

For the compound `O=C([O][Hg][CH2]C1OCCOC1[CH2][Hg][O]C(=O)c1ccccc1)c1ccccc1` (stereo not drawn), the GI50 is 7.5 µM in the experiment with RPMI-8226 leukemia; 2.22 µM in the experiment with SR leukemia; 18.3 µM with EKVX NSCLC; 8.22 µM with BT-549 breast; 17.6 µM in the experiment with SF-295 CNS; 0.0642 µM in the experiment on NCI-H522 lung. Besides, the GI50 with CAKI-1 renal is 1.74 µM; in the experiment with HOP-92 NSCLC, 37.6 µM; in the experiment on OVCAR-3 ovarian, 2.16 µM; in the experiment on SK-OV-3 ovarian it was 19.4 µM. Also, the TGI with RPMI-8226 leukemia was above 22.6 µM; in the experiment with SR leukemia, 7.21 µM; in the experiment on EKVX NSCLC, 35.5 µM; in the experiment on BT-549 breast, 20.4 µM; in the experiment with SF-295 CNS, 32.7 µM; in the experiment on NCI-H522 lung it was 0.23 µM. Further, the TGI was 3.12 µM with CAKI-1 renal, 59.4 µM with HOP-92 NSCLC, 3.8 µM in the experiment with OVCAR-3 ovarian and 34.1 µM in the experiment with SK-OV-3 ovarian.

With `CCCCCCCCC/C(=N\NC(=O)c1ccncc1)c1ccc(O)c(O)c1O`, the GI50 was 0.195 µM in the experiment on RPMI-8226 leukemia; 0.0576 µM in the experiment on SR leukemia; 0.244 µM with EKVX NSCLC; 0.36 µM in the experiment with BT-549 breast; 0.307 µM with SF-295 CNS; 0.418 µM in the experiment with NCI-H522 lung. Also, the GI50 is 0.088 µM in the experiment with CAKI-1 renal, 0.385 µM in the experiment on HOP-92 NSCLC, 0.0616 µM with OVCAR-3 ovarian and 0.246 µM with SK-OV-3 ovarian. The TGI was 31.5 µM in the experiment on RPMI-8226 leukemia; 24.4 µM in the experiment with SR leukemia; above 100 µM in the experiment with EKVX NSCLC; 67.2 µM with BT-549 breast; above 100 µM in the experiment with SF-295 CNS; 23.1 µM in the experiment with NCI-H522 lung. Moreover, the TGI with CAKI-1 renal is above 100 µM; in the experiment on HOP-92 NSCLC, above 100 µM; in the experiment with OVCAR-3 ovarian it was above 35.7 µM; in the experiment on SK-OV-3 ovarian, above 100 µM.

Regarding `CN1CCC2(CC1)NC(=O)c1c(c3ccc(Cl)c(Cl)c3n1C)C2C#N` (stereo not drawn), the GI50 in the experiment with RPMI-8226 leukemia was 2.94 µM; in the experiment with SR leukemia, 1.65 µM; in the experiment with EKVX NSCLC, 12.4 µM; in the experiment with BT-549 breast, 2.62 µM; with SF-295 CNS, 10 µM; with NCI-H522 lung, 15.2 µM. The GI50 in the experiment on CAKI-1 renal is 4.31 µM; in the experiment with HOP-92 NSCLC, 2.52 µM; in the experiment with OVCAR-3 ovarian it was 5.32 µM; in the experiment with SK-OV-3 ovarian, 14.9 µM. In addition, the TGI amounted to 13.3 µM in the experiment with RPMI-8226 leukemia; 5.36 µM in the experiment with SR leukemia; 41.1 µM in the experiment on EKVX NSCLC; 12.5 µM in the experiment on BT-549 breast; 25.3 µM with SF-295 CNS; 44.8 µM with NCI-H522 lung. Further, the TGI in the experiment with CAKI-1 renal amounted to 21.3 µM; in the experiment on HOP-92 NSCLC, 19.6 µM; with OVCAR-3 ovarian, 12.3 µM; in the experiment with SK-OV-3 ovarian it was 32 µM.

For `N#Cc1c(N2CCOCC2)nc(=S)[nH]c1-c1ccccc1`, the GI50 with RPMI-8226 leukemia is 13.3 µM; in the experiment on SR leukemia it was 29 µM; in the experiment on EKVX NSCLC it was 20.2 µM; in the experiment with BT-549 breast it was 8.78 µM; with NCI-H522 lung it was 13.8 µM; with CAKI-1 renal it was 9.29 µM. In addition, the GI50 in the experiment with HOP-92 NSCLC is 3.94 µM; in the experiment on OVCAR-3 ovarian it was 16.9 µM; in the experiment with SK-OV-3 ovarian, 8.48 µM. The TGI in the experiment on RPMI-8226 leukemia, in the experiment with SR leukemia, in the experiment on EKVX NSCLC, in the experiment with BT-549 breast, in the experiment with NCI-H522 lung and with CAKI-1 renal was above 100 µM in each case. Further, the TGI with HOP-92 NSCLC is above 100 µM; in the experiment with OVCAR-3 ovarian, above 100 µM; with SK-OV-3 ovarian it was 98.6 µM.

Consider `S=C(NCCNC(=S)[S][Sn]([c]1ccccc1)([c]1ccccc1)[c]1ccccc1)[S][Sn]([c]1ccccc1)([c]1ccccc1)[c]1ccccc1`, for which the GI50 with RPMI-8226 leukemia is 0.0234 µM; with SR leukemia, 0.017 µM; in the experiment with EKVX NSCLC, 0.0304 µM; in the experiment on BT-549 breast, 0.0799 µM; in the experiment with SF-295 CNS it was 0.099 µM; in the experiment with NCI-H522 lung, 0.0265 µM. The GI50 in the experiment with CAKI-1 renal is 0.0386 µM; in the experiment on HOP-92 NSCLC it was 0.0102 µM; in the experiment with OVCAR-3 ovarian, 0.0145 µM; in the experiment with SK-OV-3 ovarian, 0.0231 µM. The TGI is 0.147 µM in the experiment on RPMI-8226 leukemia; 16.2 µM in the experiment on SR leukemia; 0.129 µM in the experiment on EKVX NSCLC; 0.183 µM in the experiment with BT-549 breast; 0.227 µM in the experiment with SF-295 CNS; 0.0941 µM with NCI-H522 lung. Besides, the TGI in the experiment with CAKI-1 renal came out at 0.146 µM; in the experiment on HOP-92 NSCLC, 0.0493 µM; in the experiment on OVCAR-3 ovarian it was 0.0384 µM; in the experiment on SK-OV-3 ovarian, 0.0799 µM.

Consider `Cn1nc(C(F)(F)F)cc1-c1c[nH]c(OCc2ccc(Cl)cc2)c(-c2ccc(Cl)c(C(F)(F)F)c2)c1=O`, for which the GI50 was 0.547 µM in the experiment with RPMI-8226 leukemia; 1.09 µM in the experiment with SR leukemia; 1.39 µM in the experiment with EKVX NSCLC; 1.04 µM with BT-549 breast; 0.887 µM with SF-295 CNS; 0.552 µM in the experiment with NCI-H522 lung. Further, the GI50 with CAKI-1 renal was 0.917 µM; in the experiment with HOP-92 NSCLC, 0.224 µM; in the experiment on OVCAR-3 ovarian it was 1.19 µM; with SK-OV-3 ovarian, 1.36 µM. Besides, the TGI was 2.24 µM in the experiment with RPMI-8226 leukemia; above 14.3 µM with SR leukemia; above 50 µM in the experiment on EKVX NSCLC; 3.31 µM in the experiment with BT-549 breast; 2.18 µM in the experiment on SF-295 CNS; 6.15 µM with NCI-H522 lung. The TGI was 2.91 µM in the experiment with CAKI-1 renal, 1.54 µM in the experiment on HOP-92 NSCLC, 19.5 µM in the experiment with OVCAR-3 ovarian and 4.19 µM in the experiment on SK-OV-3 ovarian.

As for `C[C@@H](NC(=O)/C(C#N)=C/c1ccc([N+](=O)[O-])cc1)c1ccccc1`, the GI50 with RPMI-8226 leukemia was 2.23 µM; in the experiment with SR leukemia, 1.73 µM; with EKVX NSCLC, 6.81 µM; in the experiment on BT-549 breast, 1.75 µM; in the experiment with SF-295 CNS, 2.25 µM; with NCI-H522 lung it was 1.71 µM. Moreover, the GI50 in the experiment on CAKI-1 renal was 2.37 µM; with HOP-92 NSCLC, 1.89 µM; in the experiment on OVCAR-3 ovarian, 2.39 µM; in the experiment on SK-OV-3 ovarian it was 8.33 µM. Moreover, the TGI was 5.95 µM in the experiment with RPMI-8226 leukemia; 5.55 µM in the experiment on SR leukemia; 20.7 µM in the experiment on EKVX NSCLC; 3.55 µM in the experiment with BT-549 breast; 5.49 µM with SF-295 CNS; 3.47 µM with NCI-H522 lung. The TGI with CAKI-1 renal stood at 6.47 µM; in the experiment with HOP-92 NSCLC, 5.96 µM; with OVCAR-3 ovarian, 5.65 µM; in the experiment on SK-OV-3 ovarian, 23.3 µM.

In the case of `CCOC(=O)c1cc(C(=O)c2cc(OC)c(OC)c(OC)c2)n2c1ccc1ccccc12`, the GI50 with RPMI-8226 leukemia was 0.378 µM; with SR leukemia, 0.0704 µM; in the experiment with EKVX NSCLC, 0.461 µM; in the experiment on BT-549 breast it was 1.08 µM; in the experiment with NCI-H522 lung it was 0.131 µM; in the experiment with CAKI-1 renal it was 0.0717 µM. In addition, the GI50 in the experiment on HOP-92 NSCLC is 1.43 µM; in the experiment on OVCAR-3 ovarian, 0.151 µM; with SK-OV-3 ovarian, 1.02 µM. The TGI with RPMI-8226 leukemia, in the experiment on SR leukemia, in the experiment on EKVX NSCLC, with BT-549 breast, in the experiment on CAKI-1 renal and with HOP-92 NSCLC was above 100 µM throughout. In addition, the TGI in the experiment with OVCAR-3 ovarian was 1.26 µM; in the experiment with SK-OV-3 ovarian, above 100 µM.
